Laboratory results published in publication PMC7747594, “Protease-activated receptor-2 ligands reveal orthosteric and allosteric mechanisms of receptor inhibition” (Communications Biology, 2020).
Values joined by “and” are separate entries in the source; they are usually repeats but may differ in a detail not shown here. Equal entries are not always repeated. Blank lines part the entries; values can stand above or below the compound they belong to.

What was measured:
[1] = target: T1, hPAR2 (Homo sapiens, UniProt P55085); experiment: IP1 assay, agonist mode, 1321N1-hPAR2 cells; assay type: cell-based
T1 sequence (P55085 26-397): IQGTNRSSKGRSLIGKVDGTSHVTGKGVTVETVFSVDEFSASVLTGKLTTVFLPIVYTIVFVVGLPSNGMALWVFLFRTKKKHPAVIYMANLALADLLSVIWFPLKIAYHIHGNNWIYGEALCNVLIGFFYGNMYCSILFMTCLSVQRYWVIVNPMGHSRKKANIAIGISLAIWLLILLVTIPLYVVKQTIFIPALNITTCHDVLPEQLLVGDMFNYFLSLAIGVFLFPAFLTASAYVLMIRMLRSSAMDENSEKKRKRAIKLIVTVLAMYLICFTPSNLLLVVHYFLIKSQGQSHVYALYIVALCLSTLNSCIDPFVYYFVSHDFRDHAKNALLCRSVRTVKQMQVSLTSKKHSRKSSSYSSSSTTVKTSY

[2] = target: T1, hPAR2; experiment: pERK1/2 assay, agonist mode, U2OS-hPAR2 cells; assay type: cell-based; set-up: agonist response (Fig 2e), individual replicate values: unit not given here
[3] = target: T2, PAR1 (F2R) (Homo sapiens, UniProt P25116); experiment: β-arrestin recruitment, DiscoverX profiling service, PAR1; assay type: cell-based
T2 sequence (P25116 22-425): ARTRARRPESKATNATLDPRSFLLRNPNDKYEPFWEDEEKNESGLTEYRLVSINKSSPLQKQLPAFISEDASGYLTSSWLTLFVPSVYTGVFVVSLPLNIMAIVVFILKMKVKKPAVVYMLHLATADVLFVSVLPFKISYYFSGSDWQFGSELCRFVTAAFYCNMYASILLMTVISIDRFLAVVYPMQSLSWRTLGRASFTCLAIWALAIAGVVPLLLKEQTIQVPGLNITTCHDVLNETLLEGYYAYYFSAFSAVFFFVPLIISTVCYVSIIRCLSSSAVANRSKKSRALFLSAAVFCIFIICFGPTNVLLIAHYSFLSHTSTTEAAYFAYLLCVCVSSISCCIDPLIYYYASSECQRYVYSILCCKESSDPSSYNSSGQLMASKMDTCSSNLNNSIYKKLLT

[4] = target: T3, PAR4 (F2RL3) (Homo sapiens, UniProt Q96RI0); experiment: β-arrestin recruitment, DiscoverX profiling service, PAR4; assay type: cell-based
T3 sequence (Q96RI0 18-385): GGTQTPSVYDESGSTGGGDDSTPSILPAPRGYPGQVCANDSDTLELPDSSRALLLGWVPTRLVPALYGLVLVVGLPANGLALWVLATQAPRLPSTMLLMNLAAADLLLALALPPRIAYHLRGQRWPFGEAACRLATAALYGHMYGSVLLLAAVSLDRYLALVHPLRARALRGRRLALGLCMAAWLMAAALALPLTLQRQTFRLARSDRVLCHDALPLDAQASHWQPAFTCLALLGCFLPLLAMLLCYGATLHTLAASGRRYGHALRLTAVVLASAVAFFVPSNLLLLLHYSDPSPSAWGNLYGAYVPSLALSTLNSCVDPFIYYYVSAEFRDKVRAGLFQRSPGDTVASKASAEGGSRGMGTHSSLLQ

[5] = target: T4, PAR2 stabilised receptor (StaR) (Homo sapiens, UniProt P55085); experiment: Surface plasmon resonance (SPR) binding, single-cycle kinetics; settings: n of 2, earlier manuscript version quoted by reviewer
T4 sequence (P55085 55-377): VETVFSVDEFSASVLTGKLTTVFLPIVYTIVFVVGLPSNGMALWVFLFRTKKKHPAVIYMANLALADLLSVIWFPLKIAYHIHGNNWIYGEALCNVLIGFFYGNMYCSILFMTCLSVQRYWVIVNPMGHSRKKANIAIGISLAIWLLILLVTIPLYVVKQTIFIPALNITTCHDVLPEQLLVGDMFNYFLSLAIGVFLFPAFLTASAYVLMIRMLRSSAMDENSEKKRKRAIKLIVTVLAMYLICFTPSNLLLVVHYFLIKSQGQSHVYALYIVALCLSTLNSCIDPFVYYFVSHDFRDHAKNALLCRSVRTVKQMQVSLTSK

[6] = target: T4, PAR2 stabilised receptor (StaR); settings: SPR, previously reported; cited from earlier work

more potent than SLIGKV-NH2, IP1 accumulation ([1]; 1321N1-hPAR2): 120 fold
EC50 ([1]; 1321N1-hPAR2 cells, mean ± s.e.m., read-out: IP1 pEC50 (converted)): 200 nM
EC50 ([2]; U2OS-hPAR2, mean ± s.e.m., read-out: pERK1/2 pEC50 (converted)): 39.8 nM
agonist response (Fig 2e), individual replicate values ([2]; [compound],M -8.33985): 2.5581 and 8.989 and 6.59 and 1.141
Max Response ([3]; Arrestin, Agonist format, F2R): 0%
EC50 ([3]; Arrestin, Agonist format, F2R, read-out: RC50 (EC50)): > 50000 nM
Max Response ([3]; Arrestin, Antagonist format, F2R): 0%
IC50 ([3]; Arrestin, Antagonist format, F2R, read-out: RC50 (IC50)): > 50000 nM
activity against PAR1 in β-arrestin-2 recruitment assay ([3]; DiscoverX profiling service): No AZ2429 activity was detected
Max Response ([4]; Arrestin, Agonist format, F2RL3): 3.8%
EC50 ([4]; Arrestin, Agonist format, F2RL3, read-out: RC50 (EC50)): > 50000 nM
Max Response ([4]; Arrestin, Antagonist format, F2RL3): 2.3%
IC50 ([4]; Arrestin, Antagonist format, F2RL3, read-out: RC50 (IC50)): > 50000 nM
activity against PAR4 in β-arrestin-2 recruitment assay ([4]; DiscoverX profiling service): No AZ2429 activity was detected
Structure (SMILES): CNC(=O)[C@H]1CC[C@@H](NC(=O)[C@H](CC2CCCCC2)NC(=O)c2cn(Cc3ccccc3)nn2)c2ccccc21 [AZ2429]
agonist response (Fig 2e), individual replicate values ([2]; [compound],M -4.52288): 92.0141 and 74.7053 and 111.675 and 66.5866 and 60.3473 and 74.0471 and 117.965 and 130.52 and 124.805 and 98.7887 and 171.327 and 138.91
agonist response (Fig 2e), individual replicate values ([2]; [compound],M -5): 145.403 and 95.3612 and 122.434 and 53.1755 and 72.071 and 69.3732 and 123.833 and 115.408 and 143.854 and 198.596 and 120.076 and 126.959
agonist response (Fig 2e), individual replicate values ([2]; [compound],M -5.47712): 102.451 and 94.8209 and 99.914 and 62.5677 and 62.1847 and 84.7772 and 121.954 and 124.064 and 131.389 and 108.103 and 101.197 and 120.75
agonist response (Fig 2e), individual replicate values ([2]; [compound],M -5.95424): 89.9122 and 82.9611 and 84.3447 and 63.5614 and 54.0303 and 47.0028 and 93.3928 and 116.239 and 97.5862 and 98.4234 and 105.569 and 117.075
agonist response (Fig 2e), individual replicate values ([2]; [compound],M -6.43136): 89.3258 and 69.9482 and 44.5682 and 54.9685 and 62.0293 and 44.3162 and 80.2501 and 88.0999 and 54.8467 and 72.3986 and 88.607 and 61.7832
agonist response (Fig 2e), individual replicate values ([2]; [compound],M -6.90849): 70.3304 and 41.0432 and 36.2531 and 47.5801 and 30.25 and 29.0399 and 34.5189 and 34.3783 and 18.7041 and 36.9798 and 32.4711 and 22.2209
agonist response (Fig 2e), individual replicate values ([2]; [compound],M -7.38561): 20.4269 and 21.9818 and 16.3418 and 12.8089 and 11.7486 and 24.5769 and 9.704 and 15.3673 and 6.674 and 12.0051 and 3.09 and 15.3723
agonist response (Fig 2e), individual replicate values ([2]; [compound],M -7.86273): 4.95 and -1.995 and 15.7225 and 4.505 and 8.124 and 3.783 and 3.311 and 7.198 and -0.6009 and -4.9 and 2.6 and 2.634

Kd [5]: 14 nM
Structure (SMILES): C[C@@H](C1CCCCC1)n1c(-c2cc3c(cc2Br)OCO3)nc2cc(C(=O)Nc3ccc(C#N)cc3)ccc21 [AZ3451]

Structure (SMILES): CCCc1cc(F)ccc1C(O)c1ncc[nH]1 (stereo not drawn) [AZ8838]
residence time [6]: about 84 min
